Structures can show the parent of a compound that is named as a salt.
Legend:
[1] = system: Intracellular cAMP levels; experiment: Measurement of intracellular cAMP levels in differentiated L6 cells; type: cell-based; settings: Rattus norvegicus, L6, 0.25 h, compound 1×10^−5 M, 15 min, read-out: Biological example 2: intracellular cAMP levels, activity compared to that of isoproterenol
Description: (§1) L6-myoblasts were grown in Dulbecco's Modified Eagle's Medium (DMEM) containing 1 g/L glucose supplemented with 10% fetal bovine serum, 2 mM L-Glutamine, 50 U/mL penicillin, 50 μg/mL streptomycin and 10 mM HEPES. Cells were plated at 1×10^5 cells per mL in 24-well plates. After reaching 90% confluence the cells were grown in medium containing 2% FBS for 7 days where upon cells differentiated into myotubes.
Differentiated cells were serum-starved overnight and stimulated with an agonist, final concentration 1×10^−5 M, for 15 min in stimulation buffer (HBSS supplemented with 1% BSA, 5 mM HEPES and 1 mM IBMX, pH 7.4). The medium was aspirated and 100 μL of 95% EtOH was added to each well of the 24-well plate and cells were kept at −20° C. overnight. The EtOH was allowed to evaporate and 500 μL of lysis buffer (1% BSA, 5 mM HEPES and 0.3% Tween-20, pH 7.4) was added to each well. The plate was kept at −80° C. for 30 min and then at −20° C. until the day of detection when the samples were thawed. Intracellular cAMP levels were detected using an alpha screen cAMP kit (6760635D from Perkin Elmer). The activity for each compound is compared to that of isoproterenol.

L6-myotubes = experiment: Glucose uptake (3H-2-deoxyglucose) in differentiated L6-myotubes; type: cell-based; settings: compound 1×10^−5 M, read-out: Biological example 1: glucose uptake, activity compared to that of isoproterenol
Description: as §1
Differentiated L6-myotubes were serum-starved overnight in medium containing 0.5% fatty-acid free BSA and stimulated with an agonist, with a final concentration of 1×10^−5 M. After 1 h 40 min the cells were washed with warm glucose free medium or PBS twice and another portion of agonist was added to the glucose free medium. After 20 min the cells were exposed to 50 nM ^3H-2-deoxyglucose for 10 min before washed with ice cold glucose free medium or PBS three times and lysed with 0.2 M NaOH, 400 μL/well, for 1 h at 60° C. The cell lysate was mixed with 4 mL scintillation buffer (Emulsifier Safe, Perkin Elmer) and the radioactivity was detected in a β-counter (Tri-Carb 4810TR, Perkin Elmer). The activity for each compound is compared to that of isoproterenol.

COc1ccc(C[C@H]2CC[C@H]([C@H](O)c3cncc(F)c3)N2)cc1 [Example 23, (R)-(5-Fluoropyridin-3-yl)(2R,5R)-5-(4-methoxybenzyl)pyrrolidin-2-yl)methanol dihydrochloride]
Emax at 10 µM [1]: < 25% | Emax at 10 µM (L6-myotubes): > 75%

CS(=O)(=O)N[C@H]1CC[C@@H](C[C@@H]2CC[C@H]([C@H](O)c3cccc(F)c3)N2)CC1 [Example 38, N-((1R,4s)-4-(((2S,5R)-5-((R)-(3-Fluorophenyl)(hydroxy)methyl)pyrrolidin-2-yl)methyl)cyclohexyl)methanesulfonamide hydrochloride]
Emax at 10 µM [1]: < 25% | Emax at 10 µM (L6-myotubes): > 75%

COc1ccc(C[C@@H]2CC[C@H]([C@@H](O)c3cncc(F)c3)N2)cc1 [Example 22, (S)-(5-Fluoropyridin-3-yl)((2R,5S)-5-(4-methoxybenzyl)pyrrolidin-2-yl)methanol dihydrochloride]
Emax at 10 µM [1]: < 25% | Emax at 10 µM (L6-myotubes): > 75%

COc1ccc(C[C@@]2(C)CC[C@H]([C@@H](O)c3cccc(F)c3)N2)cc1 [Example 20, (S)-(3-Fluorophenyl)((2R,5R)-5-(4-methoxybenzyl)-5-methylpyrrolidin-2-yl)methanol hydrochloride]
Emax at 10 µM [1]: < 25% | Emax at 10 µM (L6-myotubes): > 75%

CO[C@H]1CC[C@H](C[C@@H]2CC[C@H]([C@H](O)c3cncc(F)c3)N2)CC1 [Example 9, (R)-(5-Fluoropyridin-3-yl)(2R,5S)-5-(((1r,4S)-4-methoxycyclohexyl)methyl) -pyrrolidin-2-yl)methanol dihydrochloride]
Emax at 10 µM [1]: < 25% | Emax at 10 µM (L6-myotubes): 25 to 50%

CS(=O)(=O)N[C@H]1CC[C@@H](C[C@@H]2CC[C@H]([C@@H](O)c3cccc(F)c3)N2)CC1 [Example 40, N-((1R,4s)-4-(((2S,5R)-5-((S)-(3-fluorophenyl)(hydroxy)methyl)pyrrolidin-2-yl)methyl)cyclohexyl)methanesulfonamide hydrochloride]
Emax at 10 µM [1]: < 25% | Emax at 10 µM (L6-myotubes): 50 to 75%

COc1ccc(C[C@@H]2CC[C@H]([C@H](O)c3cccc(F)c3)N2)cc1 [Example 13, (R)-(3-Fluorophenyl)((2R,5S)-5-(4-methoxybenzyl)pyrrolidin-2-yl)methanol]
Emax at 10 µM [1]: < 25% | Emax at 10 µM (L6-myotubes): > 75%

CC(=O)N[C@H]1CC[C@H](C[C@@H]2CC[C@H]([C@@H](O)c3cccc(F)c3)N2)CC1 [Example 44, N-((1S,4r)-4-(((2S,5R)-5-((S)-(3-Fluorophenyl)(hydroxy)methyl)pyrrolidin-2-yl)methyl)cyclohexyl)acetamide hydrochloride]
Emax at 10 µM [1]: < 25% | Emax at 10 µM (L6-myotubes): 50 to 75%

CO[C@H]1CC[C@H](C[C@@H]2CC[C@H]([C@@H](O)c3cncc(F)c3)N2)CC1 [Example 10, (S)-(5-Fluoropyridin-3-yl)((2R,5S)-5-(((1r,4S)-4-methoxycyclohexyl) -methyl)pyrrolidin-2-yl)methanol dihydrochloride]
Emax at 10 µM [1]: < 25% | Emax at 10 µM (L6-myotubes): 25 to 50%

CC(=O)N(Cc1ccccc1)[C@H]1CC[C@H](C[C@@H]2CC[C@H]([C@@H](O)c3cccc(F)c3)N2)CC1 [Example 43, N-Benzyl-N-((1S,4r)-4-(((2S,5R)-5-((S)-(3-fluorophenyl)(hydroxy)methyl) -pyrrolidin-2-yl)methyl)cyclohexyl)acetamide hydrochloride]
Emax at 10 µM [1]: < 25% | Emax at 10 µM (L6-myotubes): 50 to 75%

CC(=O)N(Cc1ccccc1)[C@H]1CC[C@H](C[C@@H]2CC[C@H]([C@H](O)c3cccc(F)c3)N2)CC1 [Example 41, N-Benzyl-N-((1S,4r)-4-(((2S,5R)-5-((R)-(3-fluorophenyl)(hydroxy) -methyl)pyrrolidin-2-yl)methyl)cyclohexyl)acetamide hydrochloride]
Emax at 10 µM [1]: < 25% | Emax at 10 µM (L6-myotubes): 25 to 50%

O[C@@H](c1cccc(F)c1)[C@H]1CC[C@@H](Cc2ccc(Cl)cc2)N1 [Example 26, (S)-((2R,5S)-5-(4-Chlorobenzyl)pyrrolidin-2-yl)(3-fluorophenyl)methanol hydrochloride]
Emax at 10 µM [1]: < 25% | Emax at 10 µM (L6-myotubes): 50 to 75%

CC(=O)N[C@H]1CC[C@@H](C[C@@H]2CC[C@H]([C@@H](O)c3cccc(F)c3)N2)CC1 [Example 36, N-((1R,4s)-4-(((2S,5R)-5-((S)-(3-Fluorophenyl)(hydroxy)methyl)pyrrolidin-2-yl)methyl)cyclohexyl)acetamide]
Emax at 10 µM [1]: < 25% | Emax at 10 µM (L6-myotubes): 50 to 75%

COc1ccc(C[C@H]2CC[C@H]([C@@H](O)c3cncc(F)c3)N2)cc1 [Example 24, (S)-(5-Fluoropyridin-3-yl)((2R,5R)-5-(4-methoxybenzyl)pyrrolidin-2-yl)methanol dihydrochloride]
Emax at 10 µM [1]: < 25% | Emax at 10 µM (L6-myotubes): > 75%

CO[C@H]1CC[C@H](C[C@@]2(C)CC[C@H]([C@@H](O)c3cccc(F)c3)N2)CC1 [Example 18, (S)-(3-Fluorophenyl)(2R,5R)-5-(((1r,4R)-4-methoxycyclohexyl)methyl)-5-methylpyrrolidin-2-yl)methanol hydrochloride]
Emax at 10 µM [1]: < 25% | Emax at 10 µM (L6-myotubes): 50 to 75%

O[C@@H](c1cncc(F)c1)[C@H]1CC[C@H](Cc2ccc(Cl)cc2)N1 [Example 32, (S)-(2R,5R)-5-(4-Chlorobenzyl)pyrrolidin-2-yl)(5-fluoropyridin-3-yl) -methanol dihydrochloride]
Emax at 10 µM [1]: < 25% | Emax at 10 µM (L6-myotubes): > 75%

CS(=O)(=O)N(Cc1ccccc1)[C@H]1CC[C@H](C[C@@H]2CC[C@H]([C@@H](O)c3cccc(F)c3)N2)CC1 [Example 47, N-Benzyl-N-((1S,4r)-4-(((2S,5R)-5-((S)-(3-fluorophenyl)(hydroxy) -methyl)pyrrolidin-2-yl)methyl)cyclohexyl)methanesulfonamide hydrochloride]
Emax at 10 µM [1]: < 25% | Emax at 10 µM (L6-myotubes): < 25%

CS(=O)(=O)N[C@H]1CC[C@H](C[C@@H]2CC[C@H]([C@H](O)c3cccc(F)c3)N2)CC1 [Example 46, N-((1S,4r)-4-(((2S,5R)-5-((R)-(3-Fluorophenyl)(hydroxy)methyl)pyrrolidin-2-yl)methyl)cyclohexyl)methanesulfonamide hydrochloride]
Emax at 10 µM [1]: < 25% | Emax at 10 µM (L6-myotubes): > 75%

O[C@H](c1cncc(F)c1)[C@H]1CC[C@@H](Cc2ccc(Cl)cc2)N1 [Example 29, (R)-((2R,5S)-5-(4-Chlorobenzyl)pyrrolidin-2-yl)(5-fluoropyridin-3-yl) -methanol dihydrochloride]
Emax at 10 µM [1]: < 25% | Emax at 10 µM (L6-myotubes): > 75%

CO[C@H]1CC[C@H](C[C@@H]2CC[C@H]([C@H](O)c3ccccc3F)N2)CC1.Cl [Example 5, (R)-(2-Fluorophenyl)((2R,5S)-5-(((1r,4S)-4-methoxycyclohexyl)methyl-(pyrrolidin-2-yl)methanol hydrochloride]
Emax at 10 µM [1]: < 25% | Emax at 10 µM (L6-myotubes): > 75%

CC(=O)N(Cc1ccccc1)[C@H]1CC[C@@H](C[C@@H]2CC[C@H]([C@@H](O)c3cccc(F)c3)N2)CC1 [Example 35, N-Benzyl-N-((1R,4s)-4-(((2S,5R)-5-((S)-(3-fluorophenyl)(hydroxy) -methyl)pyrrolidin-2-yl)methyl)cyclohexyl)acetamide hydrochloride]
Emax at 10 µM [1]: < 25% | Emax at 10 µM (L6-myotubes): 25 to 50%

COc1ccc(C[C@@H]2CC[C@H]([C@@H](O)c3cccc(F)c3)N2)cc1 [Example 14, (S)-(3-Fluorophenyl)((2R,5S)-5-(4-methoxybenzyl)pyrrolidin-2-yl)methanol hydrochloride]
Emax at 10 µM [1]: < 25% | Emax at 10 µM (L6-myotubes): > 75%

CO[C@H]1CC[C@H](C[C@H]2CC[C@H]([C@@H](O)c3ccccc3F)N2)CC1 [Example 8, (S)-(2-Fluorophenyl)((2R,5R)-5-(((1r,4S)-4-methoxycyclohexyl)methyl) -pyrrolidin-2-yl)methanol hydrochloride]
Emax at 10 µM [1]: < 25% | Emax at 10 µM (L6-myotubes): 50 to 75%

CS(=O)(=O)N(Cc1ccccc1)[C@H]1CC[C@@H](C[C@@H]2CC[C@H]([C@@H](O)c3cccc(F)c3)N2)CC1 [Example 39, N-Benzyl-N-((1R,4s)-4-(((2S,5R)-5-((S)-(3-fluorophenyl)(hydroxy) -methyl)pyrrolidin-2-yl)methyl)cyclohexyl)methanesulfonamide hydrochloride]
Emax at 10 µM [1]: < 25% | Emax at 10 µM (L6-myotubes): 50 to 75%

CO[C@H]1CC[C@H](C[C@@]2(C)CC[C@H]([C@H](O)c3cccc(F)c3)N2)CC1 [Example 17, (R)-(3-Fluorophenyl)((2R,5R)-5-(((1r,4R)-4-methoxycyclohexyl)methyl)-5-methylpyrrolidin-2-yl)methanol]
Emax at 10 µM [1]: 25 to 50% | Emax at 10 µM (L6-myotubes): > 75%
